Experimental findings from patent publication US8563546B2, “Heterocyclic nitrogenous or oxygenous compounds with insecticidal activity formed from dialdehydes and their preparation and uses thereof” (East China University of Science and Technology, priority 2008, dated 2013) are described below.

Holding throughout (assay type): in vivo
In data set [1] the test system is Pseudaletia Separate Walker. In words: Activity test for armyworm, feeding immersed maize leaves. The conditions noted are these: for mortality at 500 ppm: read-out: Armyworm Mortality (100%) 500 ppm. As to the method: (3) Activity Test for Armyworm (Pseudaletia Separate Walker)
Armyworm was tested by the way of feeding immersed leaves. The test compound was exactly formulated into a solution of acetone to concentration 500, 250, 100, 50, 25, 12.5, 6.25, 3.13 and 1.57 ppm. The acetone aqueous solution was used as control. Fresh maize leaves were immersed in the solution for 3 seconds and dried at room temperature and used to feed the tested insects. Each process was repeated for 3 times while 10 Armyworms were tested in each experiment. The number of killed Armyworms was counted after 24 hours to calculate the mortality using above mentioned formula.

For the next data set, the system named is Aphis craccivoral. Kind of data set: Activity test for cowpea aphids, immersing. The conditions noted are these: for mortality at 500 ppm: Aphis, read-out: Cowpea Aphids Mortality (100%) 500 ppm. The protocol: (1) Activity Test for Cowpea Aphids (Aphis Craccivoral)
Aphis, which belongs to Homoptera and has a piercing-sucking mouthpart, is a common insect for agricultural plant. Aphis craccivoral was tested by the way of immersing.
Test method: exactly weighed various samples were independently added to N,N-dimethylformamide to form a 10 g/L stock solution. The mixture was diluted with 0.2 mL/L aqueous Triton X-100 solution to a concentration of 500 ppm After stably sucking on bean sprout, the adult aphis without wings together with bean sprout was dipped into 500 ppm dilution, taken out after 5 seconds, and the excess dilution was sucked out with bibulous paper and the adult aphis without wings was incubated in clean vessel at a constant temperature of 23° C. Each concentration was repeated for 3 times and the control group contained 0.2 mL/L aqueous Triton X-100 solution. The number of killed aphis was counted after 24 hours to calculate the mortality by the following formula: mortality(%)=(control alive aphis−treated alive aphis)/control alive aphis×100%.

A further data set concerns Plutella Xylostella. Kind of data set: Activity test for diamondback moth, feeding immersed cabbage leaves. The conditions noted are these: for mortality at 500 ppm: Plutella xylostella, read-out: Diamondback moth Mortality (100%) 500 ppm. The protocol: (4) Activity Test for Diamondback Moth (Plutella Xylostella)
Diamondback moth was tested by the way of feeding immersed leaves. Fresh cabbage leaves were immersed in above mentioned solution for 3 seconds and dried at room temperature and used to feed to the tested insects. Each process was repeated for 3 tumblers (3 times) while 10 Diamondback moths were tested in each experiment, while water was used as control. The number of killed Diamondback moth was counted after 24 hours to calculate the mortality using above mentioned formula.

The next data set relates to Nilaparvata lugens. Kind of data set: Activity test for planthopper, spraying. The conditions noted are these: for mortality at 500 ppm: Nilaparvata lugens, read-out: Planthopper Mortality (100%) 500 ppm. As to the method:
(2) Activity Test for Planthopper (Nilaparvata lugens)
Planthopper, which belongs to Homoptera and has a piercing-sucking mouthpart, is a common insect for agricultural plant. Nilaparvata lugens was tested by the way of spraying.
Test method: the test compound was exactly formulated into a solution of acetone to final concentration of 500, 250, 100, 50, 25, 12.5, 6.25, 3.13, 1.57 and 0.79 ppm. The acetone aqueous solution was used as control. Each process was repeated for 3 tumblers (3 times). 2 mL of solution was sprayed uniformly to each cup by a mini manual sprayer. 10 Nilaparvata lugens were introduced to every sink 6 hours before spraying. Three series of experiments were conducted. The number of killed Nilaparvata lugens was counted after 24 hours to calculate the mortality using above mentioned formula.

Where [2] appears, read: 500 ppm, immersed maize leaves, counted after 24 hours.
Where [3] appears, read: 500 ppm, dipped 5 seconds, counted after 24 hours, 23° C.
[4] abbreviates: 500 ppm, immersed cabbage leaves, counted after 24 hours.
[5] abbreviates: 500 ppm, spraying, counted after 24 hours.

As a reminder, the mortality is the share of the test organisms that died.

Read-outs that look alike come from different tables or passages of the source.

Regarding “1-((6-chloropyridin-3-yl)methyl)-5-(1-((6-chloropyridin-3-yl) methyl)-1,4,5,6-tetrahydropyrimidin-2-yl)-1,5-dinitropenta-1,4-dienyl)-1,4,5,6-tetrahydropyrimidine [Compound 43]”, the “Armyworm Mortality (100%) 500 ppm” value in data set [1] (setting [2]) is 100%. Moreover, in the data set on Aphis craccivoral (setting [3]), the “Cowpea Aphids Mortality (100%) 500 ppm” value was found to be 78%. The “Diamondback moth Mortality (100%) 500 ppm” value in the data set with Plutella Xylostella (setting [4]) is recorded as 96%. The “Planthopper Mortality (100%) 500 ppm” value with Nilaparvata lugens (setting [5]) is on record as 87%.

In the case of `O=[N+]([O-])/C(=C1/NCCN1Cc1ccc(Cl)nc1)C(O)/C=C(\C1=NCCN1Cc1ccc(Cl)nc1)[N+](=O)[O-]` (stereo not shown) [Compound 13, 4-(1-((6-chloropyridin-3-yl)methyl)-4,5-dihydro-1H-imidazol-2-yl)-1-(1-((6-chloropyridin-3-yl)methyl)imidazolidin-2-ylidene)-1,4-dinitrobut-3-en-2-ol], the mortality at 500 ppm in data set [1] (24 h) turned out to be 100%; in the data set with Aphis craccivoral (24 h) it was 78%; in the data set on Plutella Xylostella (24 h), 100%; in the data set with Nilaparvata lugens (24 h), 85%.

Take `COC(/C=C(\C1=NCCN1Cc1ccc(Cl)nc1)[N+](=O)[O-])/C(=C1\NCCN1Cc1ccc(Cl)nc1)[N+](=O)[O-]` (stereo not shown) [Compound 14]: the mortality at 500 ppm (in data set [1] (24 h); in the data set with Aphis craccivoral (24 h); in the data set on Plutella Xylostella (24 h); with Nilaparvata lugens (24 h)) was 100% throughout.

Take `CCN(Cc1ccc(Cl)nc1)C(=N\C)/C(=C\C/C=C(\C(=N\C)N(CC)Cc1ccc(Cl)nc1)[N+](=O)[O-])[N+](=O)[O-]` [Compound 37, N^1,N^7-bis((6-chloropyridin-3-yl)methyl)-N^1,N^7-diethyl-N^1′, N^7′-dimethyl-2,6-dinitrohepta-2,5-dienediamidine]: the mortality at 500 ppm (in data set [1] (24 h); with Aphis craccivoral (24 h); in the data set on Plutella Xylostella (24 h); in the data set on Nilaparvata lugens (24 h)) was 100% throughout.

On to `O=[N+]([O-])/C(=C/C/C=C(\C1=NCCN1Cc1ccc(Cl)nc1)[N+](=O)[O-])C1=NCCN1Cc1ccc(Cl)nc1` [Compound 39], for which the mortality at 500 ppm (in data set [1] (24 h); in the data set on Aphis craccivoral (24 h); in the data set with Plutella Xylostella (24 h); in the data set on Nilaparvata lugens (24 h)) was 100% in each case.

On to `O=[N+]([O-])/C(=C/C/C=C(\C1=NCCN1Cc1cnc(Cl)s1)[N+](=O)[O-])C1=NCCN1Cc1cnc(Cl)s1` [Compound 41], for which the mortality at 500 ppm (in data set [1] (24 h); with Aphis craccivoral (24 h); in the data set on Plutella Xylostella (24 h); in the data set with Nilaparvata lugens (24 h)) was 100% throughout.

Consider `CCN(Cc1ccc(Cl)nc1)C1=C([N+](=O)[O-])C2CCC(O2)N1C` (stereo not shown) [Compound 46, N-((6-chloropyridin-3-yl)methyl)-N-ethyl-2-methyl-4-nitro-8-oxa-2-aza-bicyclo[3.2.1]oct-3-en-3-amine], for which the mortality at 500 ppm (in data set [1] (setting [2]); in the data set on Aphis craccivoral (setting [3]); with Plutella Xylostella (setting [4]); in the data set with Nilaparvata lugens (setting [5])) was 100% in each case.

Turning to `O=[N+]([O-])C1=C2N(Cc3ccc(Cl)nc3)CCN2C2CCC1O2` (stereo not shown) [Compound 52, 1-((6-chloropyridin-3-yl)methyl)-9-nitro-2,3,5,6,7,8-hexahydro-1H-5,8-epoxyimidazo[1,2-a]azepine], the mortality at 500 ppm (in data set [1] (setting [2]); in the data set with Aphis craccivoral (setting [3]); in the data set with Plutella Xylostella (setting [4]); with Nilaparvata lugens (setting [5])) was 100% throughout.

For the molecule `O=[N+]([O-])C1=C2N(Cc3cnc(Cl)s3)CCN2C2CCC1O2` (stereo not shown) [Compound 53, 1-((2-chlorothiazol-5-yl)methyl)-9-nitro-2,3,5,6,7,8-hexahydro-1H-5,8-epoxyimidazo[1,2-a]azepine], the mortality at 500 ppm (in data set [1] (setting [2]); with Aphis craccivoral (setting [3]); in the data set on Plutella Xylostella (setting [4]); with Nilaparvata lugens (setting [5])) was 100% throughout.

Turning to `O=[N+]([O-])C1=C2N(Cc3ccc(Cl)nc3)CCCN2C2CCC1O2` (stereo not shown) [Compound 61, 1-((6-chloropyridin-3-yl)methyl)-10-nitro-1,2,3,4,6,7,8,9-octahydro-6,9-epoxypyrimido[1,2-a]azepine], the mortality at 500 ppm in data set [1] (setting [2]) was 76%; with Aphis craccivoral (setting [3]), 65%; with Plutella Xylostella (setting [4]), 35%; with Nilaparvata lugens (setting [5]), 75%.

As to `N#CC1=C2N(Cc3ccc(Cl)nc3)CCN2C2CCC1O2` (stereo not shown) [Compound 64, 1-((6-chloropyridin-3-yl)methyl)-2,3,5,6,7,8-hexahydro-1H-5,8-epoxyimidazo[1,2-a]azepine-9-carbonitrile], the mortality at 500 ppm in data set [1] (setting [2]) came to 100%; with Aphis craccivoral (setting [3]) it was 96%; in the data set on Plutella Xylostella (setting [4]), 100%; in the data set with Nilaparvata lugens (setting [5]), 56%.

In the case of `O=[N+]([O-])C1=C2N(Cc3ccc(Cl)nc3)CCN2C2CCCC1O2` (stereo not shown) [Compound 77, 1-((6-chloropyridin-3-yl)methyl)-10-nitro-1,2,3,5,6,7,8,9-octahydro-5,9-epoxyimidazo[1,2-a]azocine], the mortality at 500 ppm (in data set [1] (setting [2]); with Aphis craccivoral (setting [3]); in the data set with Plutella Xylostella (setting [4]); with Nilaparvata lugens (setting [5])) was 100% each time.

In the case of `O=[N+]([O-])C1=C2N(CC3CCOC3)CCN2C2CCCC1O2` (stereo not shown) [Compound 80, 10-nitro-1-((tetrahydrofuran-3-yl)methyl)-1,2,3,5,6,7,8,9-octahydro-5,9-epoxyimidazo[1,2-a]azocine], the mortality at 500 ppm (in data set [1] (24 h); in the data set on Aphis craccivoral (24 h); in the data set with Plutella Xylostella (setting [4]); with Nilaparvata lugens (24 h)) was 100% throughout.
